# Reference: patent US20060089325A1, “Antisense modulation of PTP1B expression” (priority 2004, published 2006)
# Read-outs that look alike come from different tables or passages of the source.
# How the values were obtained:
# [1] = system: Zucker diabetic fatty (ZDF) rats; test: Fed plasma glucose in Zucker diabetic fatty (ZDF) rats; format: in vivo, rat; conditions: 25 mg/kg ip two times per week
# Text: The leptin receptor deficient Zucker diabetic fatty (ZDF) rat is another useful model for the investigation of type 2 diabetes. Diabetes develops spontaneously in these male rats at ages 8-10 weeks, and is associated with hyperphagia, polyuria, polydipsia, and impaired weight gain, symptoms which parallel the clinical symptoms of diabetes (Phillips M S, et al., 1996, Nat Genet 13, 18-19).
# (§1) ZDF/GmiCrl-fa/fa (ZDF) male rats were purchased from Charles River Laboratories (Wilmington, Mass., USA). Six week old ZDF male rats were injected intraperitoneally with oligonucleotides at a dose of 25 mg/kg two times per week for four weeks. […] Saline-injected animals also serve as controls.
# [2] = system: Zucker diabetic fatty (ZDF) rats; test: Intraperitoneal glucose tolerance test (IPGTT) in ZDF rats; format: in vivo, rat; conditions: for Blood glucose after IPGTT (± SEM) / Insulin excursion after IPGTT (± SEM): 25 mg/kg ip twice weekly
# Protocol: as §1
# An intraperitoneal glucose tolerance test (IPGTT) was also performed. Rats received intraperitoneal injections of glucose, and the blood glucose and insulin levels are measured before the glucose challenge and at intervals over 2 hours. The blood glucose levels (in mg/dL) are shown below in Table 1:
# The blood glucose levels shown in Table 1 were graphed over time and the area under the curve (AUC) is calculated. A smaller AUC for glucose (smaller blood glucose excursion after glucose challenge) indicates better glucose tolerance. Glucose excursion (AUC) for saline-treated rats was approximately 72,000; for negative control ISIS 141923-treated rats, approximately 80,000, for ISIS 113715-treated rats, approximately 60,000 and for ISIS 106425-treated rats, approximately 63,000.
# [3] = system: PTP1B protein; test: PTP1B protein levels in ZDF rats (Western blot); format: in vivo, rat; conditions: 25 mg/kg ip twice weekly four weeks
# Protocol: as §1
# PTP1B protein levels were measured by Western blot analysis.
# [4] = system: PTP1B; test: PTP1B protein in HEPG2 cells (Western blot); format: cell-based, human; conditions: 150 nM, vs no oligo treatment
# Protocol: (§2) There is a high degree of homology between PTP1B and T-cell phosphatase (TC-PTPase, PTPN2), particularly in the catalytic domain. This may present problems in design of small molecule drugs specific for PTP1B. […] HEPG2 human hepatocellular liver carcinoma cells (ATCC, Manassas Va.) are routinely maintained in minimum essential medium (Eagle) with 2 mM L-glutamine and Earle's BSS adjusted to contain 1.5 g/L sodium bicarbonate, 0.1 mM non-essential amino acids, and 1.0 mM sodium pyruvate, […]; fetal bovine serum.
# (§3) Levels of PTP1B and TC-PTPase protein were measured by Western blot using mouse monoclonal antibodies to PTP1B (AB-1) and TC-PTPase (AB-1) (CalBiochem/Oncogene sciences, EMD Biosciences, Inc., San Diego Calif.), which specifically identified human target proteins and were used at 0.25 ug/ml. Results were expressed as percent of control (no oligo treatment).
# [5] = system: TC-PTPase; test: TC-PTPase protein in HEPG2 cells (Western blot), specificity; format: cell-based, human; conditions: 150 nM, vs no oligo treatment
# Protocol: as §2, §3
# [6] = rat, in vivo
# [7] = system: Zucker diabetic fatty (ZDF) rats; test: ZDF rats, comparison to rosiglitazone and metformin: blood glucose, HbA1c, meal tolerance, body weight; format: in vivo, rat; conditions: for HbA1c: end of study (5 weeks), saline ZDF 9.2%, lean 5.5
# Protocol: A saline treated group of lean rats was also included in the study. Treatment with all drugs was initiated before the rats became frankly diabetic, which occurs at about 8 weeks of age. Plasma glucose levels were measured 3 and 5 weeks after treatment initiation. Body weight was measured once every week; in addition, HbA1c levels were measured at the end of the study by HPLC. A meal tolerance test was also performed after 4 weeks of treatment.
# At the end of 5 weeks, some rats were sacrificed and the liver and epididymal fat pads were removed. The rest of the animals (n=4/group) were examined for changes in plasma glucose levels after cessation of treatment. Glucose measurements during the recovery phase were made 10 days and 5 weeks after stopping treatment. Tissue extracts were subjected to Western blot analysis to measure changes in PTP1B protein levels.
# [8] = system: Zucker diabetic fatty (ZDF) rats; test: as above; format: in vivo, rat; conditions: 31 day washout after 5 weeks of treatment
# [9] = AST/ALT and plasma cholesterol in aged ZDF rats; conditions: weeks 1, 2, 3, 4 and 5
# [10] = system: Zucker Diabetic Fatty Rats; test: Combination of ISIS 113715 and metformin in ZDF rats: plasma glucose (Table 18); format: in vivo, rat
# Protocol: 500 mg/kg is the maximally effective dose that can be tolerated by these rats. Plasma glucose was measured at week 0 (before treatment) and after weeks 1, 2 and 4 of treatment.
# [11] = Metformin combination in ZDF rats: hypoglycemia, AST/ALT, lipids, plasma lactate; format: in vivo, rat; conditions: after 4 weeks of treatment
# Protocol: 500 mg/kg is the maximally effective dose that can be tolerated by these rats.
# There was no significant change in AST/ALT, plasma triglyceride or plasma cholesterol levels in any animal group. Because of the risk of lactic acidosis associated with metformin treatment, plasma lactate levels were measured.
# [12] = 10 day washout after 5 weeks of treatment
# [13] = Week 3 of dosing, ISIS 113715 50 mg/kg/week ip, rosiglitazone 10 mg/kg/day, metformin 800 mg/kg/day orally
molecule,measurement,setting,value
"ISIS 141923: CCTTCCCTGAAGGTTCCTCC (SEQ ID NO: 20), six-mismatch control of ISIS 113715, negative oligonucleotide control (chemistry not given here)",Fed plasma glucose levels,[1]; week 0,approximately 306±59 mg/dL
same,Fed plasma glucose levels,[1]; week 1,~391 ± 35 mg/dL
same,Fed plasma glucose levels,[1]; week 2,~402 ± 37 mg/dL
same,Fed plasma glucose levels,[1]; week 3,~411 ± 27 mg/dL
same,Fed plasma glucose levels,[1]; week 4,~392 ± 11 mg/dL
same,Blood glucose after IPGTT (± SEM),[2]; 0 min,330 ± 39 mg/dL
same,Insulin excursion after IPGTT (± SEM),[2]; 0 min,2.2 ± .30 ng/mL
same,Blood glucose after IPGTT (± SEM),[2]; 5 min,543 ± 43 mg/dL
same,Insulin excursion after IPGTT (± SEM),[2]; 5 min,2.3 ± .84 ng/mL
same,Blood glucose after IPGTT (± SEM),[2]; 15 min,703 ± 60 mg/dL
same,Insulin excursion after IPGTT (± SEM),[2]; 15 min,4.0 ± .22 ng/mL
same,Blood glucose after IPGTT (± SEM),[2]; 30 min,791 ± 52 mg/dL
same,Insulin excursion after IPGTT (± SEM),[2]; 30 min,4.2 ± .37 ng/mL
same,Blood glucose after IPGTT (± SEM),[2]; 60 min,705 ± 51 mg/dL
same,Insulin excursion after IPGTT (± SEM),[2]; 60 min,2.4 ± .66 ng/mL
same,Blood glucose after IPGTT (± SEM),[2]; 120 min,594 ± 28 mg/dL
same,Insulin excursion after IPGTT (± SEM),[2]; 120 min,1.7 ± .60 ng/mL
same,Insulin AUC after IPGTT,[2]; saline approximately 300,~320
same,Glucose excursion (AUC) after IPGTT,"[2]; saline approximately 72,000","approximately 80,000"
same,"PTP1B protein levels, decrease vs saline-treated animals",[3],10%
same,Reduction of PTP1B protein levels,[4],reduced neither PTP1B nor TC-PTPase levels
same,Reduction of TC-PTPase levels,[5],reduced neither PTP1B nor TC-PTPase levels
same,AST/ALT,[6],no significant effects
same,Plasma cholesterol levels,[6],no significant effects
CN(CCOc1ccc(CC2SC(=O)NC2=O)cc1)c1ccccn1 (centres unmarked) [Rosiglitazone],Blood glucose (approx.),[7]; [12],~260 mg/dL
same,Blood glucose (approx.),[7]; Pre-treatment,~140 mg/dL
same,Blood glucose (approx.),[7]; [13],~110 mg/dL
same,HbA1c,[7],5.4%
same,Blood glucose (approx.),[8],~270 mg/dL
same,Plasma cholesterol levels,[9],no significant effects
CN(C)C(=N)N=C(N)N [Metformin],Body weight after treatment,[7]; 5 weeks,remained unchanged
same,Blood glucose (approx.),[7]; [12],~305 mg/dL
same,Blood glucose (approx.),[7]; Pre-treatment,~135 mg/dL
same,Blood glucose (approx.),[7]; [13],~180 mg/dL
same,HbA1c,[7],6.1%
same,Effect on blood glucose over the study (in words),"[10]; ISIS 113715 12.5 mg/kg ip twice a week, metformin 100, 300 or 500 mg/kg per day, four weeks",lost over time
same,Plasma glucose mg/dL ± SEM,"[10]; metformin alone 100 mg/kg per day oral gavage, Week 0 (before treatment)",256 ± 29 mg/dL
same,Plasma glucose mg/dL ± SEM,"[10]; metformin alone 100 mg/kg per day oral gavage, Week 1",428 ± 20 mg/dL
same,Plasma glucose mg/dL ± SEM,"[10]; metformin alone 100 mg/kg per day oral gavage, Week 2",504 ± 20 mg/dL
same,Plasma glucose mg/dL ± SEM,"[10]; metformin alone 100 mg/kg per day oral gavage, Week 3",494 ± 18 mg/dL
same,Plasma glucose mg/dL ± SEM,"[10]; metformin alone 100 mg/kg per day oral gavage, Week 4",393 ± 71 mg/dL
same,Plasma glucose mg/dL ± SEM,"[10]; metformin alone 300 mg/kg per day oral gavage, Week 0 (before treatment)",251 ± 27 mg/dL
same,Plasma glucose mg/dL ± SEM,"[10]; metformin alone 300 mg/kg per day oral gavage, Week 1",323 ± 33 mg/dL
same,Plasma glucose mg/dL ± SEM,"[10]; metformin alone 300 mg/kg per day oral gavage, Week 2",415 ± 29 mg/dL
same,Plasma glucose mg/dL ± SEM,"[10]; metformin alone 300 mg/kg per day oral gavage, Week 3",449 ± 11 mg/dL
same,Plasma glucose mg/dL ± SEM,"[10]; metformin alone 300 mg/kg per day oral gavage, Week 4",448 ± 42 mg/dL
same,Plasma glucose mg/dL ± SEM,"[10]; metformin alone 500 mg/kg per day oral gavage, Week 0 (before treatment)",252 ± 28 mg/dL
same,Plasma glucose mg/dL ± SEM,"[10]; metformin alone 500 mg/kg per day oral gavage, Week 1",244 ± 56 mg/dL
same,Plasma glucose mg/dL ± SEM,"[10]; metformin alone 500 mg/kg per day oral gavage, Week 2",344 ± 59 mg/dL
same,Plasma glucose mg/dL ± SEM,"[10]; metformin alone 500 mg/kg per day oral gavage, Week 3",374 ± 53 mg/dL
same,Plasma glucose mg/dL ± SEM,"[10]; metformin alone 500 mg/kg per day oral gavage, Week 4",443 ± 35 mg/dL
same,Plasma lactate levels,[11],dose-dependent increase in lactate
same,Blood glucose (approx.),[8],~330 mg/dL
